Assay results reported in PubChem BioAssay AID720588 (Broad Institute, 2013).
Activity calls are given as the source filed them.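 Rule for the calls: active = fitted curve falls past a set limit of signal loss at no more than twice the top dose; inconclusive = flat fit between 30 and 70% signal loss, or poor fit; inactive = signal rise, flat within 30%, or crossing too high.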

Experiment: ATP-based viability loss in HEK293T cells – cell-based, CellTiter-Glo luminescence, cherry-pick, set 3, cytotoxicity control, dose response (AID 720588)
Conditions: HEK293T viability, CellTiter-Glo ATP luminescence, 72 h

| Compound | activity change, negative = cytotoxicity (at 26 µM (top of the series)) | also measured |
| --- | --- | --- |
| C[C@@H]1CN([C@@H](C)CO)S(=O)(=O)c2ccc(C#CCN(C)C)cc2O[C@@H]1CN(C)Cc1ccncc1 | 52.2% (inactive) | – |
| CCS(=O)(=O)N1Cc2ccccc2CC1C(=O)Nc1nnc(SCc2ccc(C#N)cc2)s1 (configuration not stated) | -8.94% (inactive) | – |
| C[C@H]1CCCCO[C@H](CN(C)Cc2ccc(C(F)(F)F)cc2)[C@@H](C)CN([C@@H](C)CO)C(=O)c2cc(NC(=O)Nc3ccccc3)ccc2O1 | 0.212% (inactive) | – |
| C/C=C/c1ccc(C2[C@@H]3CN(C(=O)Cc4ccccc4)C[C@H]2N3)cc1 (some centres not stated) | 18% (inactive) | – |
| CCOc1ccc(NC(=O)C(=O)N/N=C\c2ccc(CNS(=O)(=O)c3ccccc3)o2)cc1 | -24.2% (inactive) | – |
| CN(C)C(=S)N=Nc1[nH]c2ccccc2c1O | 7.38% (inactive) | – |
| COc1ccc(CN(C)C[C@H]2Oc3ccc(NC(=O)CCCCCC(=O)Nc4ccccc4N)cc3CC(=O)N([C@H](C)CO)C[C@H]2C)cc1 | – | activity change, negative = cytotoxicity (at 21 µM (top of the series)): -29.4% (inactive) |
| COc1ccc(S(=O)(=O)Nc2cccc3c2O[C@H](CN(C)Cc2ccc(C(=O)Nc4ccccc4N)cc2)[C@H](C)CN([C@@H](C)CO)C3=O)cc1 | – | activity change, negative = cytotoxicity (at 21 µM (top of the series)): -18.8% (inactive) |
| COc1ccc(C(C)(O)c2nc(-c3cccc(F)c3)cs2)cc1 (configuration not stated) | -24.1% (inactive) | – |
| CCCCNC(=O)C(c1ccc(OCC(=O)OC)c(C(=O)OC)c1)N(CCOC)C(=O)CCCCCN1C(=O)NC(c2ccc(-c3ccccc3)cc2)C(C(=O)OCc2ccccc2)=C1C (configuration not stated) | 2.6% (inactive) | – |
| O=C1Nc2ccccc2C1=Nc1ccccc1-c1ccccc1 | -21.1% (inactive) | – |
| COc1ccc(Nc2ncnc3ccc(Br)cc23)c(OC)c1 | -18.8% (inactive) | – |
| N=c1ccn2c(n1)O[C@H]1[C@H](O)[C@@H](CO)O[C@H]12 | -7.04% (inactive) | – |
| COC(=O)C[C@@H]1CC[C@@H]2[C@H](COc3ccc(NC(=O)c4ccc(C(F)(F)F)cc4)cc3C(=O)N2C)O1 | -2.65% (inactive) | – |
| Cc1[nH][nH]c(=O)c1C(c1c(C)[nH][nH]c1=O)c1cn(Cc2ccc(Cl)c(Cl)c2)c2ccccc12 | -16% (inactive) | – |
| O=C1NC2C(=CC(O)C(O)C2O)c2cc3c(cc21)OCO3 (configuration not stated) | -41.4% (inactive) | – |
| O=C(NCc1cccnc1)C1Cc2c(-c3ccc(Cl)cc3)ccnc2O1 (configuration not stated) | -17.5% (inactive) | – |
| CC(=O)c1ccc(N(C(=O)Cn2nnc3ccccc32)C(C(=O)NCc2ccccc2)c2ccccn2)cc1 (configuration not stated) | -21.8% (inactive) | – |
| COc1cc(-c2cnc3c(NC=O)cc(-c4cccc(NC(C)=O)c4)cn23)cc(OC)c1OC | 27.3% (inactive) | – |
| COCc1cc(C)nc2sc(C(=O)NCCO)c(-n3cccc3)c12 | 12.7% (inactive) | – |
| O=C(O)c1ccc(N/N=C/c2cc(Br)cs2)cc1 | -9.61% (inactive) | – |
| Cc1ccc(N2C(=O)c3cccc4c(N)ccc(c34)C2=O)c2cccnc12 | -19.1% (inactive) | – |
| C[C@@H]1CN([C@@H](C)CO)C(=O)c2cccc(NS(=O)(=O)c3ccc(F)cc3)c2O[C@@H]1CN(C)Cc1ccc(C(=O)Nc2ccccc2N)cc1 | -33.3% (inactive) | – |
| COCCOC(=O)N1C(=O)[C@@]2(c3cc(C#CCC(C(=O)OC)C(=O)OC)ccc31)[C@H](c1ccccc1OCCO)N1[C@H](c3ccccc3)[C@H](c3ccccc3)OC(=O)[C@H]1[C@@H]2C(=O)N1CCN(c2ncccn2)CC1 | 28.9% (inactive) | – |
| O=C(Nc1cccc(Oc2ccc3c(c2)C(=O)NC3=O)c1)c1cccs1 | -22.5% (inactive) | – |
| C[C@H](CO)N1C[C@H](C)[C@H](CN(C)Cc2ccc(C(F)(F)F)cc2)Oc2c(NS(=O)(=O)c3ccc(Cl)cc3)cccc2C1=O | -9.18% (inactive) | – |

| Compound | activity change, negative = cytotoxicity (at 26 µM (top of the series)) | also measured |
| --- | --- | --- |
| OCCN1CCN(C(=S)c2ccc(-c3ccccc3)cc2)CC1 | -3.37% (inactive) | – |
| COc1cc(-c2noc(C)c2C#Cc2nccn2C)cc(OC)c1OC | -11% (inactive) | – |
| O=C(C1CC1)N1C[C@@H]2N[C@H](C1)C2c1ccc(/C=C/c2ccccc2)cc1 (some centres not stated) | -31.7% (inactive) | – |
| CC(C)CN(C(=O)CN1CCOCC1)c1c(N)n(CC(C)C)c(=O)[nH]c1=O | 6.36% (inactive) | – |
| COCC(=O)Nc1ccc2c(c1)[C@@H]1C[C@@H](CC(=O)NCc3ccc(-c4ccccc4)cc3)O[C@@H](CO)[C@@H]1O2 | 13.6% (inactive) | – |
| Cc1cc(C(=O)NNC(=O)c2ccc(S(=O)(=O)N(C)C)cc2)c(C)o1 | -12.5% (inactive) | – |
| Cc1ccc(/C=C2\SC(=S)N(CCC(=O)NNC(=O)c3ccccc3O)C2=O)cc1 | 24.1% (inactive) | – |
| COc1ccc(C(=O)CN2C(=O)c3ccccc3S2(=O)=O)cc1 | -13.5% (inactive) | – |
| COc1ccc(C2=Nn3c(nnc3-c3ccccc3OC)SC2)cc1OCC1CC1 | -31.8% (inactive) | – |
| COc1cc2c(cc1OC)C(C)N(C(=O)c1cc(Cl)nc(Cl)c1)CC2 (configuration not stated) | -13.4% (inactive) | – |
| COC(=O)C[C@@H]1CC[C@@H]2[C@H](COc3ccc(NC(=O)c4cccc(Cl)c4)cc3C(=O)N2C)O1 | – | activity change, negative = cytotoxicity (at 23.5 µM (top of the series)): -19.6% (inactive) |
| C[C@H](CO)N1C[C@H](C)[C@H](CN(C)Cc2ccc(C(F)(F)F)cc2)Oc2ccc(NC(=O)CCCCCC(=O)Nc3ccccc3N)cc2CC1=O | – | activity change, negative = cytotoxicity (at 8 µM (top of the series)): 50% (inactive) |
| CC(=O)ON=C1C=CC(=C(C#N)c2ccccc2)C=C1 | -28.3% (inactive) | – |
| Cc1sc2nc(CN3CCC(C)CC3)nc(Cl)c2c1C | 5.44% (inactive) | – |
| CC(C)c1oc(=O)cc2c1[C@@H](O)[C@H]1OC(=O)[C@@]3(C)CC[C@@H](O)[C@@]2(C)C13 (some centres not stated) | -27.6% (inactive) | – |
| CN(C)C(=O)c1ccc(-c2ccccc2[C@@H]2[C@@H](CO)N(C(=O)C3CC3)[C@H]2C#N)cc1 | 13.4% (inactive) | – |
| Cc1ccc(S(=O)(=O)Nc2ccc3c(c2)C(=O)N([C@@H](C)CO)C[C@@H](C)[C@H](CN(C)Cc2ccc(C(F)(F)F)cc2)OCCCC[C@H](C)O3)cc1 | -33.3% (inactive) | – |
| CN(C)c1ccc(N=Nc2ccccc2Br)cc1 | -16.8% (inactive) | – |
| CC(C)(C)c1ccc(Cn2c(=O)cnc3ccccc32)cc1 | -33.1% (inactive) | – |
| COc1cc(OC)cc(-c2cc3nc(C)c(CCC(=O)O)c(C)n3n2)c1 | 11.4% (inactive) | – |
| CCCn1c(C)cc(C(=O)CN2C(=O)c3ccccc3S2(=O)=O)c1C | 4.1% (inactive) | – |
| CCOc1cc2[nH]c(=S)n(Cc3ccc(C(=O)N4CCN(C)CC4)cc3)c(=O)c2cc1OCC | -20.5% (inactive) | – |
| CCCNC(=O)N1[C@H](C#N)[C@H](c2ccc(C#Cc3ccc(F)cc3)cc2)[C@H]1CO | 14.3% (inactive) | – |
| O=S(=O)(c1ccc(F)cc1)N1C[C@H]2[C@@H](c3ccccc31)[C@H](CO)N2Cc1ccccc1Cl | – | activity change, negative = cytotoxicity (at 23.5 µM (top of the series)): -5.62% (inactive) |
| COc1cc(C(c2c(C)[nH][nH]c2=O)c2c(C)[nH][nH]c2=O)ccc1OC(C)C | -1.41% (inactive) | – |
| Nc1cc2c(cc1Br)[nH]c(=O)c1ccccc12 | 17.5% (inactive) | – |
